Assay results taken from patent US20100152434A1, “Protein Kinase-binding Nucleosides and Associated Methods” (priority 2007, published 2010).
Read-outs that look alike come from different tables or passages of the source.

Assays:
[1] = tested on: HOP-92
[2] = tested on: NCI-H322M
[3] = tested on: COLO 205
[4] = tested on: HT29
[5] = tested on: SF-295
[6] = tested on: SNB-75
[7] = tested on: U251
[8] = tested on: MALME-3M
[9] = tested on: M14
[10] = tested on: IGROV1
[11] = tested on: CAKI-1
[12] = tested on: RXF 393; conditions: RXF 393
[13] = tested on: TK-10
[14] = tested on: DU-145
[15] = tested on: SF-268; assay: cells; conditions: Homo sapiens, SF-268
[16] = tested on: SF-539; assay: cells; conditions: Homo sapiens, SF-539
[17] = tested on: SNB-75; assay: cells; conditions: Homo sapiens, SNB-75
[18] = tested on: OVCAR-5; assay: cells; conditions: Homo sapiens, OVCAR-5
[19] = tested on: CAKI-1; assay: cells; conditions: Homo sapiens, CAKI-1
[20] = tested on: DU-145; assay: cells; conditions: Homo sapiens, DU-145
[21] = tested on: NCI/ADR-RES; assay: cells; conditions: Homo sapiens
[22] = tested on: MDA-MB-435; assay: cells; conditions: Homo sapiens, MDA-MB-435
[23] = Log10 Concentration −4.0, Molar
[24] = Log10 Concentration −5.0, Molar
[25] = Log10 Concentration −6.0, Molar
[26] = Log10 Concentration −7.0, Molar
[27] = Log10 Concentration −8.0, Molar

CNC(=O)NC[C@H]1O[C@@H](n2cnc3c(NC(=O)Nc4ccccc4)ncnc32)C(O[Si](C)(C)C(C)(C)C)[C@H]1O[Si](C)(C)C(C)(C)C (stereo partly shown) [Compound 25, 2′,3′-Bis-O-(tert-butyldimethylsilyl)-5-deoxy-5′-[(N-methylcarbamoyl)amino]-N^6-(N-phenylcarbamoyl)adenosine]
TGI [1]: 5.16E−6 Molar | Percent Growth [1, 23]: −50% | Percent Growth [1, 24]: −25% | Percent Growth [1, 25]: 69% | Percent Growth [1, 26]: 80% | Percent Growth [1, 27]: 85% | TGI [2]: >1.00E−4 Molar | Percent Growth ([2]; Log10 Concentration −4.0 Molar): 21% | Percent Growth ([2]; Log10 Concentration −5.0 Molar): 39% | Percent Growth ([2]; Log10 Concentration −6.0 Molar): 105% | Percent Growth ([2]; Log10 Concentration −7.0 Molar): 106% | Percent Growth ([2]; Log10 Concentration −8.0 Molar): 102% | TGI [3]: 3.35E−6 Molar | Percent Growth [3, 23]: −94% | Percent Growth [3, 24]: −95% | Percent Growth [3, 25]: 105% | Percent Growth [3, 26]: 111% | Percent Growth [3, 27]: 109% | TGI [4]: 3.73E−6 Molar | Percent Growth [4, 23]: −100% | Percent Growth [4, 24]: −80% | Percent Growth [4, 25]: 107% | Percent Growth [4, 26]: 104% | Percent Growth [4, 27]: 102% | TGI [5]: 3.18E−5 Molar | Percent Growth [5, 23]: −7% | Percent Growth [5, 24]: 7% | Percent Growth [5, 25]: 111% | Percent Growth [5, 26]: 107% | Percent Growth [5, 27]: 103% | TGI [6]: 3.41E−5 Molar | Percent Growth [6, 23]: −12% | Percent Growth [6, 24]: 14% | Percent Growth [6, 25]: 73% | Percent Growth [6, 26]: 95% | Percent Growth [6, 27]: 94% | TGI [7]: 1.08E−5 Molar | Percent Growth [7, 23]: −46% | Percent Growth [7, 24]: 2% | Percent Growth [7, 25]: 93% | Percent Growth [7, 26]: 102% | Percent Growth [7, 27]: 102% | TGI [8]: 9.84E−6 Molar | Percent Growth [8, 23]: −48% | Percent Growth [8, 24]: −1% | Percent Growth [8, 25]: 96% | Percent Growth [8, 26]: 88% | Percent Growth [8, 27]: 105% | TGI [9]: 1.85E−5 Molar | Percent Growth [9, 23]: −52% | Percent Growth [9, 24]: 19% | Percent Growth [9, 25]: 105% | Percent Growth [9, 26]: 107% | Percent Growth [9, 27]: 101% | TGI [10]: 7.76E−6 Molar | Percent Growth [10, 23]: −39% | Percent Growth [10, 24]: −12% | Percent Growth [10, 25]: 98% | Percent Growth [10, 26]: 99% | Percent Growth [10, 27]: 100% | TGI [11]: 7.93E−6 Molar | Percent Growth [11, 23]: −33% | Percent Growth [11, 24]: −11% | Percent Growth [11, 25]: 96% | Percent Growth [11, 26]: 99% | Percent Growth [11, 27]: 100% | TGI [12]: 4.01E−6 Molar | Percent Growth [12, 23]: −77% | Percent Growth [12, 24]: −73% | Percent Growth [12, 25]: 111% | Percent Growth [12, 26]: 73% | Percent Growth [12, 27]: 96% | TGI [13]: 7.26E−5 Molar | Percent Growth [13, 23]: −2% | Percent Growth [13, 24]: 14% | Percent Growth [13, 25]: 112% | Percent Growth [13, 26]: 113% | Percent Growth [13, 27]: 110% | TGI [14]: 5.71E−6 Molar | Percent Growth [14, 23]: −89% | Percent Growth [14, 24]: −35% | Percent Growth [14, 25]: 109% | Percent Growth [14, 26]: 107% | Percent Growth [14, 27]: 103% | GI50 [15]: 3.58 µM | IC50 [15]: > 100 µM | GI50 [16]: 3.07 µM | IC50 [16]: 94.3 µM | GI50 [17]: 2.43 µM | IC50 [17]: > 100 µM | GI50 [18]: 5.24 µM | IC50 [18]: > 100 µM | GI50 [19]: 2.7 µM | IC50 [19]: > 100 µM | GI50 [20]: 2.59 µM | IC50 [20]: 18.7 µM | GI50 [21]: 3.72 µM | IC50 [21]: > 100 µM | GI50 [22]: 3.41 µM | IC50 [22]: > 100 µM
